In patent publication US20030166932A1 (priority 2002, published 2003):
pEC50, pKi: −log10 of the molar value.

Assays:
RARβ [1] = target: T1, RARβ (Homo sapiens, UniProt P10826); test: cell-based; type: cell-based; settings: for EC50: NA = Not Active, read-out: RAR Trans. EC50 (nM) β; for Emax: relative to 10^−6 M ATRA, read-out: % efficacy, RAR Trans. β
T1 sequence (P10826 154-455): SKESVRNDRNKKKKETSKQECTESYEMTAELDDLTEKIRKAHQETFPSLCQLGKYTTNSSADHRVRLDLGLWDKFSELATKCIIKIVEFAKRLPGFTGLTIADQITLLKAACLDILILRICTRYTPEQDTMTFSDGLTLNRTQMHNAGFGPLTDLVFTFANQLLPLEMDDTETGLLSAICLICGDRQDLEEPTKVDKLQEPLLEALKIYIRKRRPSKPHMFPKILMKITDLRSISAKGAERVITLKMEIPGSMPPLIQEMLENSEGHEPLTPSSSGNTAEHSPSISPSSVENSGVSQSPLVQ
Source text: (§1) The specification of U.S. Pat. No. 5,455,265 is hereby expressly incorporated by reference.

RARβ [2] = target: T2, RARβ (Homo sapiens, UniProt P10826); test: ligand binding assay; settings: read-out: RAR Bind. Ki (nM) β
T2 sequence (P10826 1-455): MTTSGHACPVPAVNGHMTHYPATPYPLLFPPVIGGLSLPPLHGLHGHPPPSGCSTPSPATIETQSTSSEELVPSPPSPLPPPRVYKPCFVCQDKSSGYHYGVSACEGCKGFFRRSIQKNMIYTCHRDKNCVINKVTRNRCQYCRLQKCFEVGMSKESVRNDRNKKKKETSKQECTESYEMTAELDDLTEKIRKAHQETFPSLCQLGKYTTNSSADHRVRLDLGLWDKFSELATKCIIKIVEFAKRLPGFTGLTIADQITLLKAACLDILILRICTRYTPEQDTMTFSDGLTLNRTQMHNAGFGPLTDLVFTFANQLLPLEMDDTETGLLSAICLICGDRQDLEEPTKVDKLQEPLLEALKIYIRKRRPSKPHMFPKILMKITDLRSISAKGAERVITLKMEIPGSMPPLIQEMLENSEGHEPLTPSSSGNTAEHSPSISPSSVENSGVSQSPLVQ
Source text: (§2) The results obtained in this assay are expressed in EC50 numbers, as they are also in the chimeric receptor transactivation assay. The results of ligand binding assay are expressed in Kd numbers.
(§3) Particularly, the transactivation data pertaining to RAR receptors were obtained in the chimeric assay, and the data pertaining to transactivation of RXR receptors were obtained in the holoreceptor transactivation assay.

RARγ [3] = target: T3, RARγ (Homo sapiens, UniProt P13631); test: ligand binding assay; settings: read-out: RAR Bind. Ki (nM) Y
T3 sequence (P13631 1-454): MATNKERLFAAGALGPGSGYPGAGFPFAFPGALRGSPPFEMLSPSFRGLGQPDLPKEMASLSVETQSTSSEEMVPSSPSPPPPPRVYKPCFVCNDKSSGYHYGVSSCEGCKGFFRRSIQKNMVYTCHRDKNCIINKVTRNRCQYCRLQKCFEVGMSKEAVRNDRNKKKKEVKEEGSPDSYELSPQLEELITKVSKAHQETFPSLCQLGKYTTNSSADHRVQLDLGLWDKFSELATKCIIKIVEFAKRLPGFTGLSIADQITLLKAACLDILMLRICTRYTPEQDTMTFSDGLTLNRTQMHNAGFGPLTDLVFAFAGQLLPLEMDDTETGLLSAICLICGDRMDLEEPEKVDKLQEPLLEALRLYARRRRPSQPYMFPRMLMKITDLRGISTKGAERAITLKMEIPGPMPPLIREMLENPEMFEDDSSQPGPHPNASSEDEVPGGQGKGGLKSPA
Source text: as §2, §3

RXRβ [4] = target: T4, RXRβ (UniProt P28704); test: ligand binding assay; settings: read-out: RXR Bind Ki (nM) β
T4 sequence (P28704 1-520): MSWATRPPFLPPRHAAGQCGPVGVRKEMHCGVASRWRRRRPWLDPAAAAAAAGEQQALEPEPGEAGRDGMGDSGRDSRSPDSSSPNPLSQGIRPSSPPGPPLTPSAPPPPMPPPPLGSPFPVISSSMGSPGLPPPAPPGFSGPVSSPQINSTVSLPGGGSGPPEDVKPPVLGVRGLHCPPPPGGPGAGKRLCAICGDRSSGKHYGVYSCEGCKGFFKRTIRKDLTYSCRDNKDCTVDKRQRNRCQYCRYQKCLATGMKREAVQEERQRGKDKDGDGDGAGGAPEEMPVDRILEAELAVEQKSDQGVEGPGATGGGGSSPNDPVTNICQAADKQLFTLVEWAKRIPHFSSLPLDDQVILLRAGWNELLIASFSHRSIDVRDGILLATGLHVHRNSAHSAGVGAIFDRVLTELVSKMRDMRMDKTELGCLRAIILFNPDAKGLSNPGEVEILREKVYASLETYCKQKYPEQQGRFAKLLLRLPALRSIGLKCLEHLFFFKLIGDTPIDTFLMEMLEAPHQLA
Source text: as §2, §3

RXRγ [5] = target: T5, RXRγ (UniProt P28705); test: ligand binding assay; settings: read-out: RXR Bind Ki (nM) Y
T5 sequence (P28705 1-463): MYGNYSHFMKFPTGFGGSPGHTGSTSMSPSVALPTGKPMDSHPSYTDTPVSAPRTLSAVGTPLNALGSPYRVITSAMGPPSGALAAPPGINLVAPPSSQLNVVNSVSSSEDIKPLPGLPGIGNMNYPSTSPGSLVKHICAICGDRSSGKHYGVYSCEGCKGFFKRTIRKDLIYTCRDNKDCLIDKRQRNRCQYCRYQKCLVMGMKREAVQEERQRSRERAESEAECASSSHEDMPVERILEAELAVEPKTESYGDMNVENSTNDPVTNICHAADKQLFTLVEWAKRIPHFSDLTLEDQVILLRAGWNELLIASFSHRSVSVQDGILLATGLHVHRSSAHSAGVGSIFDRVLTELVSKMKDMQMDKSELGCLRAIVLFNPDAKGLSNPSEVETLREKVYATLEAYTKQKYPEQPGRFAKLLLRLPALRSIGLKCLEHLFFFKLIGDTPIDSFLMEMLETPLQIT

RXRα [6] = target: T6, RXRα (Homo sapiens, UniProt P19793); test: ligand binding assay
T6 sequence (P19793 1-462): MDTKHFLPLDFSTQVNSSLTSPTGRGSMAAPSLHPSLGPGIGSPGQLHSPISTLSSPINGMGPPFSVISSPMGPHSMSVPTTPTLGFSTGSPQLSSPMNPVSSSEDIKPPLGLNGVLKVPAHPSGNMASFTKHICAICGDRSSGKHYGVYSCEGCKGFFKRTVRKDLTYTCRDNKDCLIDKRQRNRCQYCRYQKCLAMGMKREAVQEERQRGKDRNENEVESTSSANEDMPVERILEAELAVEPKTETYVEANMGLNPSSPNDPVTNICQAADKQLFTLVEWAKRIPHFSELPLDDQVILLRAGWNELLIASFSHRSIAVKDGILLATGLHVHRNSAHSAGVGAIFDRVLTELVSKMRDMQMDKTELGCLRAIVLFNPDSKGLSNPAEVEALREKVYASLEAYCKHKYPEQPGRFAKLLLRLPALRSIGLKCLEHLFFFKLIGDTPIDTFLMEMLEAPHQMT
Source text: as §2, §3

RXRβ [7] = target: T4, RXRβ; test: holoreceptor transactivation assay; type: cell-based; settings: for EC50: NA = Not Active, read-out: RXR Trans. EC50 (nM) β; for % efficacy, RXR Trans. β: relative to 10^−6 M AGN 194204
Source text: as §2, §3

RXRγ [8] = target: T5, RXRγ; test: holoreceptor transactivation assay; type: cell-based; settings: for EC50: NA = Not Active, read-out: RXR Trans. EC50 (nM) Y; for % efficacy, RXR Trans. Y: relative to 10^−6 M AGN 194204
Source text: as §2, §3

RXRα [9] = target: T6, RXRα; test: holoreceptor transactivation assay; settings: for Emax: read-out: % efficacy, RXR Trans. α
Source text: as §2, §3

RARγ [10] = target: T7, RARγ (Homo sapiens, UniProt P13631); type: cell-based
T7 sequence (P13631 156-454): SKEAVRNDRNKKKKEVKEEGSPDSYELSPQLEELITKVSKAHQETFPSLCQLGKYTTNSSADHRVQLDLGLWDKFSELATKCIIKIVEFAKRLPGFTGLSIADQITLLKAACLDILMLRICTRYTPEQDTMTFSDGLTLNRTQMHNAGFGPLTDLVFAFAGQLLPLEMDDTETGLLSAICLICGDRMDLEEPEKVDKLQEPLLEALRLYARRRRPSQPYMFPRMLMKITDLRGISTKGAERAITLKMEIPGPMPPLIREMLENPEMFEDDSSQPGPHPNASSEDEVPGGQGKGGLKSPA
Source text: as §1

RARα = target: T8, RARα (Homo sapiens, UniProt P10276); test: chimeric receptor transactivation assay; type: cell-based
T8 sequence (P10276 1-462): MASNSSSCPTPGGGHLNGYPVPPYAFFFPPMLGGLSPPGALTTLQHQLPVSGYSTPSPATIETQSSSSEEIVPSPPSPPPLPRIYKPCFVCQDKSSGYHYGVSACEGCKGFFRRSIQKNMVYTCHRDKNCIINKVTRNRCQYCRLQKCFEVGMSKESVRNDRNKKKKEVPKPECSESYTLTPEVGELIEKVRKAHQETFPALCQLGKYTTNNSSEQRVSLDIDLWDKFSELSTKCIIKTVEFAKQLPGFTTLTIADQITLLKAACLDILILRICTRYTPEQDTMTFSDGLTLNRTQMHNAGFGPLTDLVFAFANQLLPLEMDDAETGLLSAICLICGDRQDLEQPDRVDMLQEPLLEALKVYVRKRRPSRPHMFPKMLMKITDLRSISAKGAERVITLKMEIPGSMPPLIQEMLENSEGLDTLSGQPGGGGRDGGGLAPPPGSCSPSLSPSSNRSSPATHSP
Source text: as §1

EC50 (RARβ [1]) [nM]	Emax (RARβ [1]) [%]	Ki (RARβ [2]) [nM]	Ki (RARγ [3]) [nM]	Ki (RXRβ [4]) [nM]	Ki (RXRγ [5]) [nM]	pKi (RXRα [6])	EC50 (RXRβ [7]) [nM]	% efficacy, RXR Trans. β (RXRβ [7])	EC50 (RXRγ [8]) [nM]	% efficacy, RXR Trans. Y (RXRγ [8])	pEC50 (RXRα [9])	Emax (RXRα [9]) [%]	EC50 (RARγ [10]; NA = Not Active, read-out: RAR Trans. EC50 (nM) Y) [nM]	% efficacy, RAR Trans. Y (RARγ [10]; relative to 10^−6 M ATRA)	EC50 (RARα; NA = Not Active, read-out: RAR Trans. EC50 (nM) α) [nM]	Emax (RARα; relative to 10^−6 M ATRA, read-out: % efficacy, RAR Trans. α) [%]	Structure (SMILES)
> 1000	32	1200	13000	46	99	8.10											CCCN(c1ccc(C(=O)O)cc1)c1cc2c(cc1OCc1ccccc1)C(C)(C)CC=C2C(C)C [Compound 157]
		7500	> 10000	15	37	8.30	8	(63) %	2	(101) %	9.30	64					CCN(c1ccc(C(=O)O)cc1)c1cc2c(cc1OC)C(C)(C)CC=C2C(C)C [Compound 148, 4-[Ethyl-(8-isopropyl-3-methoxy-5,5-dimethyl-5,6-dihydronaphthalen-2-yl)amino]benzoic acid]
> 1000	15	> 10000	> 10000	84	68	7.41	76	(110) %	12	(102) %	7.92	112	> 1000	(5) %			C=CCN(c1ccc(C(=O)O)cc1)c1ccc2c(c1)C(C(C)(C)C)=CCC2(C)C [Compound 90, 4-[(8-t-Butyl-5,5-dimethyl-5,6-dihydronaphthalen-2-yl)(prop-2-en-yl)lamino]-benzoic acid]
		> 10000	3500	12	21	8.52	41	(100) %	5	(120) %	8.40	114					CCN(c1ccc(C(=O)O)cc1)c1ccc2c(c1)C(C(C)(C)C)=CCC2(C)C [Compound 88]
		6000	> 10000	4	6	9.15	13	(112) %	2	(118) %	8.70	109					CCN(c1ccc2c(c1)C(C(C)C)=CCC2(C)C)c1ccc(C(=O)O)cn1 [Compound 172, 6-[Ethyl-(8-isopropyl5,5-dimethyl-5,6-dihydro-naphthalen-2-yl)-amino]-nicotinic acid]
		1300	4000	30		8.15	4	(84) %	0.5	(90) %	9.52	85			0.5	10	CCN(c1ccc(C(=O)O)cc1)c1cc2c(cc1C)C(C)(C)CC=C2C(C)(C)C [Compound 26, 4-[Ethyl(8-t-butyl-3,5,5-trimethyl-5,6-dihydronaphthalen-2-yl)amino]benzoic acid]

Structure (SMILES)	EC50 (RARβ [1]) [nM]	Emax (RARβ [1]) [%]	Ki (RARβ [2]) [nM]	Ki (RARγ [3]) [nM]	Ki (RXRβ [4]) [nM]	Ki (RXRγ [5]) [nM]	pKi (RXRα [6])	EC50 (RXRβ [7]) [nM]	% efficacy, RXR Trans. β (RXRβ [7])	EC50 (RXRγ [8]) [nM]	% efficacy, RXR Trans. Y (RXRγ [8])	pEC50 (RXRα [9])	Emax (RXRα [9]) [%]	EC50 (RARγ [10]; NA = Not Active, read-out: RAR Trans. EC50 (nM) Y) [nM]	% efficacy, RAR Trans. Y (RARγ [10]; relative to 10^−6 M ATRA)	EC50 (RARα; NA = Not Active, read-out: RAR Trans. EC50 (nM) α) [nM]	Emax (RARα; relative to 10^−6 M ATRA, read-out: % efficacy, RAR Trans. α) [%]
CCN(c1ccc2c(c1)C(C)=CCC2(C)C)c1ccc(C(=O)O)cn1 [Compound 170, 6-[Ethyl-(5,5,8-trimethyl-5,6-dihydro-naphthalen-2-yl)-amino]-nicotinic acid]			> 10000	> 10000	190	61	7.19	379	(110) %	67	(127) %	7.48	113				
